Results published in patent US11578073B2, “Xanthine analogs as potent anti-West Nile viral agents” (Southern Research Institute, priority 2019, dated 2023).

How the values were obtained:
West Nile virus = experiment: anti-West Nile virus activity of xanthine analogs in HEK293 cells; format: cell-based; settings: HEK293, read-out: EC90 (effective concentration to inhibit 90% of virus)
[1] = cell viability assay (cytotoxicity) in HEK293 cells; format: cell-based; settings: human, read-out: CC50 (50% cytotoxicity concentration)

For `Cn1c(=O)[nH]c(=O)c2c1nc(N1CCN(Cc3ccc(C(C)(C)C)cc3)CC1)n2Cc1ccncc1F` [Compound 20, 8-(4-(4-(tert-Butyl)benzyl)piperazin-1-yl)-7-((3-fluoropyridin-4-yl)methyl)-3-methyl-3,7-dihydro-1H-purine-2,6-dione], the EC90 (West Nile virus) was 2.6 µM and the CC50 [1] was 22.1 µM.
In the case of `Cn1c(=O)n(O)c(=O)c2c1nc(N1CCN(Cc3ccc(C(C)(C)C)cc3)CC1)n2Cc1ccccc1F` [Compound 4, 8-(4-(4-(tert-butyl)benzyl)piperazin-1-yl)-7-(2-fluorobenzyl)-1-hydroxy-3-methyl-3,7-dihydro-1H-purine-2,6-dione], the EC90 (West Nile virus) is reported as > 30 µM and the CC50 [1] is reported as > 40 µM.
For `Cc1ccc(C)c(N2CCN(c3nc4c(c(=O)[nH]c(=O)n4C)n3Cc3ccccc3F)CC2)c1` [Compound 26, 8-(4-(2,5-Dimethylphenyl)piperazin-1-yl)-7-(2-fluorobenzyl)-3-methyl-3,7-dihydro-1H-purine-2,6-dione], the EC90 (West Nile virus) was 4.5 µM and the CC50 [1] was 2.8 µM.
For `Cn1c(=O)[nH]c(=O)c2c1nc(N1CCC(C)(C)CC1)n2Cc1ccccc1F` [Compound 52, 8-(4,4-Dimethylpiperidin-1-yl)-7-(2-fluorobenzyl)-3-methyl-3,7-dihydro-1H-purine-2,6-dione], the EC90 (West Nile virus) was 3.9 µM and the CC50 [1] was > 30 µM.
Compound `Cn1c(=O)n(CCO)c(=O)c2c1nc(N1CCN(Cc3ccc(C(C)(C)C)cc3)CC1)n2Cc1ccccc1F` [Compound 6, 8-(4-(4-(tert-butyl)benzyl)piperazin-1-yl)-7-(2-fluorobenzyl)-1-(2-hydroxyethyl)-3-methyl-3,7-dihydro-1H-purine-2,6-dione] has an EC90 (West Nile virus) of 6 µM and a CC50 [1] of 12 µM.
With `Cc1ccc(C)c(CN2CCN(c3nc4c(c(=O)[nH]c(=O)n4C)n3Cc3cccc(F)c3)CC2)c1` [Compound 13, 8-(4-(2,5-Dimethylbenzyl)piperazin-1-yl)-7-(3-fluorobenzyl)-3-methyl-3,7-dihydro-1H-purine-2,6-dione] the EC90 (West Nile virus) was 5.7 µM and the CC50 [1] was > 30 µM.
In the case of `Cn1c(=O)[nH]c(=O)c2c1nc(N1CCN(Cc3ccc(C(C)(C)C#N)cc3)CC1)n2Cc1ccccc1F` [Compound 39, 2-(4-((4-(7-(2-Fluorobenzyl)-3-methyl-2,6-dioxo-2,3,6,7-tetrahydro-1H-purin-8-yl)piperazin-1-yl)methyl)phenyl)-2-methylpropanenitrile], the EC90 (West Nile virus) is reported as > 30 µM and the CC50 [1] is reported as > 40 µM.
Work on `Cn1c(=O)n(CO)c(=O)c2c1nc(N1CCN(Cc3ccc(C(C)(C)C)cc3)CC1)n2Cc1ccccc1F` [Compound 5, 8-(4-(4-(tert-butyl)benzyl)piperazin-1-yl)-7-(2-fluorobenzyl)-1-(hydroxymethyl)-3-methyl-3,7-dihydro-1H-purine-2,6-dione] yielded an EC90 (West Nile virus) of 1.2 µM and a CC50 [1] of 16.8 µM.
In the case of `Cc1ccc(C)c(C(=O)N2CCN(c3nc4c(c(=O)[nH]c(=O)n4C)n3Cc3ccccc3F)CC2)c1` [Compound 43, 8-(4-(2,5-Dimethylbenzoyl)piperazin-1-yl)-7-(2-fluorobenzyl)-3-methyl-3,7-dihydro-1H-purine-2,6-dione], the EC90 (West Nile virus) is reported as > 10 µM and the CC50 [1] is reported as > 40 µM.
In the case of `Cn1c(=O)[nH]c(=O)c2c1nc(N1CCN(Cc3ccc(C(C)(C)C)cc3)CC1)n2Cc1ccc(C(=O)O)cc1F` [Compound 19, 4-((8-(4-(4-(tert-butyl)benzyl)piperazin-1-yl)-3-methyl-2,6-dioxo-1,2,3,6-tetrahydro-7H-purin-7-yl)methyl)-3-fluorobenzoic Acid], the EC90 (West Nile virus) is reported as > 10 µM and the CC50 [1] is reported as > 40 µM.
`Cn1c(=O)[nH]c(=O)c2c1nc(N1CCN(c3ccc(C(F)(F)F)cc3)CC1)n2Cc1ccccc1F` [Compound 30, 7-(2-Fluorobenzyl)-3-methyl-8-(4-(4-(trifluoromethyl)phenyl)piperazin-1-yl)-3,7-dihydro-1H-purine-2,6-dione] gave an EC90 (West Nile virus) of 6.5 µM and a CC50 [1] of 12.9 µM.
With `CCn1c(N2CCN(Cc3cc(C)ccc3C)CC2)nc2c1c(=O)[nH]c(=O)n2C` [Compound 8, 8-(4-(2,5-Dimethylbenzyl)piperazin-1-yl)-7-ethyl-3-methyl-3,7-dihydro-1H-purine-2,6-dione] the EC90 (West Nile virus) was > 10 µM and the CC50 [1] was > 40 µM.
With `Cn1c(=O)[nH]c(=O)c2c1nc(N1CCN(Cc3ccc(C(C)(C)C)cc3)CC1)n2Cc1ccccc1C(F)(F)F` [Compound 16, 8-(4-(4-(tert-Butyl)benzyl)piperazin-1-yl)-3-methyl-7-(2-(trifluoromethyl)benzyl)-3,7-dihydro-1H-purine-2,6-dione] the EC90 (West Nile virus) was 1.2 µM and the CC50 [1] was 12.4 µM.
For `Cn1c(=O)[nH]c(=O)c2c1nc(N1CCC(c3cccc(F)c3)CC1)n2Cc1ccccc1F` [Compound 57, 7-(2-Fluorobenzyl)-8-(4-(3-fluorophenyl)piperidin-1-yl)-3-methyl-3,7-dihydro-1H-purine-2,6-dione], the EC90 (West Nile virus) was 4.4 µM and the CC50 [1] was > 30 µM.
In the case of `Cn1c(=O)[nH]c(=O)c2c1nc(N1CCN(Cc3ccc(C(C)(C)C)cc3)CC1)n2Cc1ccccc1OC(F)(F)F` [Compound 17, 8-(4-(4-(tert-Butyl)benzyl)piperazin-1-yl)-3-methyl-7-(2-(trifluoromethoxy)benzyl)-3,7-dihydro-1H-purine-2,6-dione], the EC90 (West Nile virus) is reported as 1.2 µM and the CC50 [1] is reported as 10.2 µM.
In the case of `Cn1c(=O)[nH]c(=O)c2c1nc(N1CCN(Cc3ccc(C(C)(C)C)cc3)CC1)n2Cc1ccccc1F` [Compound 36, 8-(4-(4-(tert-butyl)benzyl)piperazin-1-yl)-7-(2-fluorobenzyl)-3-methyl-3,7-dihydro-1H-purine-2,6-dione], the EC90 (West Nile virus) is reported as 0.87 µM and the CC50 [1] is reported as > 30 µM.
With `Cc1ccc(C)c(CN2CCN(c3nc4c(c(=O)[nH]c(=O)n4C)n3CC3CCCCC3)CC2)c1` [Compound 9, 7-(Cyclohexylmethyl)-8-(4-(2,5-dimethylbenzyl)piperazin-1-yl)-3-methyl-3,7-dihydro-1H-purine-2,6-dione] the EC90 (West Nile virus) was 4.4 µM and the CC50 [1] was > 40 µM.
With `Cn1c(=O)[nH]c(=O)c2c1nc(N1CCOCC1)n2Cc1ccccc1F` [Compound 22, 7-(2-Fluorobenzyl)-3-methyl-8-morpholino-3,7-dihydro-1H-purine-2,6-dione] the EC90 (West Nile virus) was > 10 µM and the CC50 [1] was > 40 µM.
